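GI50 is the concentration that inhibits growth by half. At the TGI there is no net growth.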
How the values were obtained:
Experiment in all cases: inhibition of tumour cell growth, NCI panel, 384-well format
NCI-H226 lung = test system: NCI-H226 lung
NCI-H23 lung = test system: NCI-H23 lung
NCI-H322M lung = test system: NCI-H322M lung
NCI-H460 NSCLC = test system: NCI-H460 NSCLC
NCI-H522 lung = test system: NCI-H522 lung
NCI/ADR-RES ovarian = test system: NCI/ADR-RES ovarian
OVCAR-3 ovarian = test system: OVCAR-3 ovarian
OVCAR-4 ovarian = test system: OVCAR-4 ovarian
OVCAR-5 ovarian = test system: OVCAR-5 ovarian
OVCAR-8 ovarian = test system: OVCAR-8 ovarian
PC-3 prostate = test system: PC-3 prostate
RPMI-8226 leukemia = test system: RPMI-8226 leukemia
RXF 393 renal = test system: RXF 393 renal
SF-268 CNS = test system: SF-268 CNS
SF-295 CNS = test system: SF-295 CNS
SF-539 CNS = test system: SF-539 CNS
SK-MEL-28 melanoma = test system: SK-MEL-28 melanoma
SK-MEL-5 melanoma = test system: SK-MEL-5 melanoma
SK-OV-3 ovarian = test system: SK-OV-3 ovarian
SN12C renal = test system: SN12C renal
SNB-19 CNS = test system: SNB-19 CNS
SNB-75 CNS = test system: SNB-75 CNS
SR leukemia = test system: SR leukemia
SW-620 colon = test system: SW-620 colon
T-47D breast = test system: T-47D breast
TK-10 renal = test system: TK-10 renal
UACC-257 melanoma = test system: UACC-257 melanoma
UACC-62 melanoma = test system: UACC-62 melanoma
UO-31 renal = test system: UO-31 renal

## CN1C(=O)C(C)(C)Oc2c(-c3cn(C)c(=O)c4[nH]ccc34)cc(S(C)(=O)=O)cc21
NCI-H226 lung
  TGI: 1.71 µM
NCI-H23 lung
  GI50: 0.257 µM
  TGI: 1.57 µM
NCI-H322M lung
  GI50: 0.441 µM
  TGI: 3.9 µM
NCI-H460 NSCLC
  GI50: 1.16 µM
  TGI: 10.4 µM
NCI-H522 lung
  GI50: 0.135 µM
  TGI: 0.544 µM
NCI/ADR-RES ovarian
  GI50: 5.65 µM
  TGI: 45.9 µM
OVCAR-3 ovarian
  GI50: 0.232 µM
  TGI: 1.18 µM
OVCAR-4 ovarian
  GI50: 0.114 µM
  TGI: 0.346 µM
OVCAR-5 ovarian
  GI50: 0.271 µM
  TGI: 2.24 µM
OVCAR-8 ovarian
  GI50: 0.235 µM
  TGI: 1.19 µM
PC-3 prostate
  GI50: 1.04 µM
  TGI: 50.7 µM
RPMI-8226 leukemia
  GI50: 0.0234 µM
  TGI: 0.152 µM
RXF 393 renal
  GI50: 1.73 µM
  TGI: 10.7 µM
SF-268 CNS
  GI50: 0.728 µM
  TGI: 3.49 µM
SF-295 CNS
  GI50: 1.05 µM
  TGI: 7.54 µM
SF-539 CNS
  GI50: 0.274 µM
  TGI: 1.05 µM
SK-MEL-28 melanoma
  GI50: 0.347 µM
  TGI: 4.21 µM
SK-MEL-5 melanoma
  GI50: 0.178 µM
  TGI: 1.14 µM
SK-OV-3 ovarian
  GI50: 0.237 µM
  TGI: 1.56 µM
SN12C renal
  GI50: 0.669 µM
  TGI: 3.55 µM
SNB-19 CNS
  GI50: 0.423 µM
  TGI: 7.13 µM
SNB-75 CNS
  GI50: 0.343 µM
  TGI: 7.57 µM
SR leukemia
  GI50: 0.0728 µM
  TGI: 0.531 µM
SW-620 colon
  GI50: 1.28 µM
  TGI: 5.61 µM
T-47D breast
  GI50: 0.156 µM
  TGI: 0.865 µM
TK-10 renal
  GI50: 0.279 µM
  TGI: 1.17 µM
UACC-257 melanoma
  GI50: 0.206 µM
  TGI: 1.33 µM
UACC-62 melanoma
  GI50: 0.0687 µM
  TGI: 0.891 µM
UO-31 renal
  GI50: 2.56 µM
  TGI: > 100 µM
